2 molecules from PMC5402281, “Functional, thermodynamics, structural and biological studies of in silico-identified inhibitors of Mycobacterium tuberculosis enoyl-ACP(CoA) reductase enzyme” (Scientific Reports, 2017) can be followed below.

Molecules are shown by their SMILES. Values after ≈ are worked out from the molar mass of the structure shown.

In this experiment the test system is M. tuberculosis PE-003 multidrug-resistant clinical isolate. Put plainly: microbe, parasite or virus in culture. It counts as cell-based. The conditions noted are these: Mycobacterium tuberculosis, read-out: MIC PE-003 in μM.

Regarding `Cc1ccccc1OCc1nc(-c2ccc(NC(=O)c3cccs3)cc2)no1` [Labio_16], the MIC turned out to be 1.5 µM (≈ 0.587 µg/mL).
Then `CCOC(=O)c1ccc2nc(C)cc(Nc3ccc(N4CCCCC4)cc3)c2c1` [Labio_17], with 2.5 µM (≈ 0.974 µg/mL).
